Columns and labels:
Type in all cases: cell-based
[1] = test system: neural precursor cells (NPCs); assay: Control over growth and differentiation of neural precursor cells on Ara-C coated Si NWs (immunofluorescence)
Description: Si NWs were grown on a Si substrate via CVD. Substrates were first prepared by immobilizing Au nanoparticles on a precleaned Si (111) substrate using a thin polyelectrolyte layer as previously described (J. Am. Chem. Soc. 2008, 130, 6252-6258; Nano Lett. 2004, 4, 1987-1990; J. Am. Chem. Soc. 2001, 123, 9769-9779; J. Am. Chem. Soc. 2008, 130, 6252-6258). Si NWs were then synthesized by the vapor transport method using SiCl4 as the precursor for Si NW growth and H2 (10%) in argon as the carrier gas with minor modifications from that which was previously reported (Nano Lett. 2005, 5, 457-460). Briefly, a Si (111) substrate, covered with Au nanoparticles patterned into stripes by flowing a solution of 70 nm Au nanoparticles across poly-l-lysine coated silicon using PDMS microfluidic channels, was placed inside a 1″ diameter quartz tube and loaded at the center of a 12″ horizontal tube furnace (Lindberg/Blue M). After the quartz tube was evacuated and flushed repeatedly with H2 (10%) in argon gas mixture to minimize oxygen contamination, it was charged with H2 (10%) in argon gas up to 760 torr and the pump line was quickly replaced with a line that enabled venting through a bubbler filled with a saturated K2CO3 aqueous solution, meant to trap the byproduct of SiCl4 decomposition, gaseous HCl. […]

HeLa cells = assay: Apoptosis assay (TUNEL / Annexin V) of HeLa cells on inhibitor-coated Si NWs after actinomycin-D and TNF-α; conditions: Si NWs treated with 100 mM inhibitor; actinomycin-D 1 μg/mL, TNF-α 2 ng/mL; cells on uncoated NWs died
Description: The silanized Si NWs (produced via CVD prior to silanization) were treated with 100 mM Ac-DEVD-CHO, an apoptosis inhibitor, in PBS at room temperature for 1 hr, and washed in PBS three times for 2 min each. HeLa cells (5×10^4 cells/mL) in DMEM media were added onto the Si NWs, and cultured in a CO2 incubator at 37° C. overnight. The cell treated Si NWs were then transferred into a fresh DMEM media containing actinomycin-D at the final concentration of 1 μg/mL, and incubated in a CO2 incubator at 37° C. for 30 min, followed by addition of TNF-α at the final concentration of 2 ng/mL. After incubation in CO2 incubator at 37° C. for indicated hours, the cells on the Si NWs were assayed for apoptosis.
Cells were analyzed for apoptosis by the Terminal Deoxynucleotide Transferase dUTP Nick End Labeling (TUNEL) assay or by the Annexin V assay. TUNEL staining was performed using the apoptosis detection kit according to the manufacturer's protocol with minor modifications. […] After blocking, streptavidin-Cy3 at 20 μg/mL and WGA Alexa Fluor 488 at 50 μg/mL were incubated with the Si NWs for 30 min at room temperature, and washed in PBC three times for 5 min each, followed by examination under a fluorescence microscope. […] After incubation for 15 min at room temperature and washes in binding buffer three times for 1 min each, cells were analyzed under a fluorescence microscope.

[2] = test system: Mouse embryonic stem cells (mES cells); assay: Si NW delivery into mouse embryonic stem cells; conditions: delivered by Si NWs
Description: Mouse embryonic stem cells (mES cells) were also used in this study. Delivery of molecules (including Cre Recombinase proteins) into mES cells was carried out in a manner similar to that described in Example 3.

Question: Which results are given for `Nc1ccn([C@@H]2O[C@H](CO)[C@@H](O)[C@@H]2O)c(=O)n1` [Ara-C, Cytarabine]?
Answer: proliferation of glial-like cell plated atop Ara-C coated NWs ([1]; Ara-C 1 mg/mL, 5 uL coated on silanized CVD Si NWs, examined on sixth day): survived but did not proliferate; cell type mixture in regions containing NWs ([1]; Ara-C coated NWs, regions without NWs showed only mitotic cell types, sixth day): neuron heavy

Question: How did the “cell survival after apoptosis induction” value (HeLa cells) turn out when Ac-DEVD-CHO was run?
Answer: survived

B1: Cre Recombinase proteins: Cre Recombinase proteins delivered by Si NWs into mES cells (protein, UniProt P06956 1-343, looked up)
Recombinase cre: MSNLLTVHQNLPALPVDATSDEVRKNLMDMFRDRQAFSEHTWKMLLSVCRSWAAWCKLNNRKWFPAEPEDVRDYLLYLQARGLAVKTIQQHLGQLNMLHRRSGLPRPSDSNAVSLVMRRIRKENVDAGERAKQALAFERTDFDQVRSLMENSDRCQDIRNLAFLGIAYNTLLRIAEIARIRVKDISRTDGGRMLIHIGRTKTLVSTAGVEKALSLGVTKLVERWISVSGVADDPNNYLFCRVRKNGVAAPSATSQLSTRALEGIFEATHRLIYGAKDDSGQRYLAWSGHSARVGAARDMARAGVSIPEIMQAGGWTNVNIVMNYIRNLDSETGAMVRLLEDGD
Question: With B1 as the molecule, how does the “EGFP expression in transgenic foxed-eGFP mES cells” value [2] read?
Answer: expressed EGFP

Source: patent US9304132B2, “Molecular delivery with nanowires” (President and Fellows of Harvard College, priority 2009, dated 2016)
